Values joined by “and” are separate entries in the source; they are usually repeats but may differ in a detail not shown here. Equal entries are not always repeated. Where two headings read alike, the source gives them in different places.
Assays:
[1] = test system: Human Leukocyte Lipoxygenase; experiment: Human Leukocyte Lipoxygenase Assay (LDA-H); format: biochemical
Protocol: Whole blood is collected from normal volunteers and spun in a refrigerated centrifuge for four minutes at 1°-6° C. at 3800 g. The buffy coat is manually separated and washed twice with chilled 0.83% NH4 Cl and centrifuged at 1000 RPM for ten minutes at 4° C. The white cell is suspended in culture media-EMEM supplemented with 6% Agamma human serum, tricine buffer, and neomycin and recentrifuged at 1000 g to yield a pellet containing the leukocytes used for the preparation of the acetone pentane powder.
The acetone-pentane powder is prepared utilizing a modification of the procedure reported for human platelet lipoxygenase. See Siegel, et al, Arachidonate Metabolism via Lipoxygenase and 12-L-hydro-peroxy-5 Eicosatetraenoic Acid Peroxidase Sensitive to Antiinflammatory Drugs, Proc. Natl. Acad. Sci., U.S.A. 77:308, 1980 and D. P. Wallach and V. R. Brown, A Novel Preparation of Human Platlet Lipoxygenase, Biochem. Biophys. Acta. 663:361, 1981. Buffy coat prepared above is resuspended in 5-7 volumes of cold 0.1M Tris buffer, pH 7.4 containing 0.154M NaCl. The suspension is centrifuged at 13,300 g for ten minutes at 4° C. The resultant pellet is retained, resuspended in five volumes of cold acetone, recentrifuged at 13,300 g and resuspended in five volumes of cold pentane. The pentane suspension is centrifuged for ten minutes at 13,300 g to give a pellet which is dried in the cold under vacuum with periodic pulverization. The dry powder is stable for several weeks when stored at -80° C.
Enzyme stock solution is prepared in the following manner. About 15 mg of the acetone-pentane powder is suspended in 4 ml of cold tris buffer (0.1M, pH 7.4), allowed to stand for five minutes, and homogenized thoroughly. The homogenate is sonicated three times for 15 seconds each time, diluted to 7 ml with cold tris buffer (0.1M, pH 7.4), and centrifuged at 4° C. for 60 minutes at 13,300 g. The supernatent is retained and diluted to a total of 10 ml with cold tris buffer (0.1M, pH 7.4) to give the stock enzyme solution. Additional dilutions of 2-50 fold are done as necessary to locate optimal enzyme reaction rate in the assay described below.
Substrate solution is prepared at 100 μM or 1.0 μM concentrations of arachidonic acid or linoleic acid in 0.1M tris buffer, pH 9.0 containing 20% ethanol.
The enzyme reaction is followed spectrophotometrically by the appearance of a conjugated diene product at 234 nm. The reaction is monitored at 24° C. using a Gilford Model 2600 spectrophotometer. […] The effects of inhibitors on the reaction are compared with control reactions run under indentical conditions. Routinely, each compounds of the present invention is incubated with the enzyme for five minutes prior to addition of substrate to initiate the reaction. Inhibition expressed as IC50 as molar concentration of the compound required to reduce reaction rate to 50% control.

[2] = target: T1, human leukocyte 5-lipoxygenase (Homo sapiens, UniProt P09917); experiment: 5-Lipoxygenase assay in human leukocytes, formation of 5-HETE (5LOA; 5LOA1 or 5LOA2 not specified); format: cell-based
T1 construct: endogenous in cells; host or cells: leukocytes from fresh human blood
T1 sequence (P09917 1-674): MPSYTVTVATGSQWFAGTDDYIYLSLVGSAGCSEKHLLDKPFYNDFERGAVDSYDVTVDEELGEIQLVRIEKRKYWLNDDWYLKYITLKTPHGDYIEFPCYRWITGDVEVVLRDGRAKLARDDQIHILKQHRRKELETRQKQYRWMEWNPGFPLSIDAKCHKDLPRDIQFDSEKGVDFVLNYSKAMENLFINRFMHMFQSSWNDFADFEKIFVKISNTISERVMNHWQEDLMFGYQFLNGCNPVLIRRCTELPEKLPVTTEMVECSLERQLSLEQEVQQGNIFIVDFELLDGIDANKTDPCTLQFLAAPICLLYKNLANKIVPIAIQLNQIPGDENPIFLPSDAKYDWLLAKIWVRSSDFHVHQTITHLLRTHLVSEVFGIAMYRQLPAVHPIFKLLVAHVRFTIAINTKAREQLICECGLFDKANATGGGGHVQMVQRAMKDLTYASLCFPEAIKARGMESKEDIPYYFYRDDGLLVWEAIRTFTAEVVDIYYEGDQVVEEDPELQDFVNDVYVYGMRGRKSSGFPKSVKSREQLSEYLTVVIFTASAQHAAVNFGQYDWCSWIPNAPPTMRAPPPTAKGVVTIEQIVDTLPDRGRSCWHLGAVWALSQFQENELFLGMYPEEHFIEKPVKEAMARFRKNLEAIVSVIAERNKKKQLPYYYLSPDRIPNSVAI
From the text: To Evaluate the Effect of Each Compounds as a 5-Lipoxygenase Inhibitor in Comparison to Standard Reference Agents in Human Leukocytes (5LOAl)
The purpose of this assay is to evaluate the activity of each compound as an inhibitor of human leukocyte 5-lipoxygenase.
Arachidonic acid and calcium ionophore A23l87 are obtained from Sigma (St. Louis, Mo.). Silica gel plates, GF are obtained from Analtech (Newark, Del.). Arachidonic acid, (1-^14 C) and 5-HETE (^3 H), 5 (S)-hydroxy-6-trans, 8,11,14-cis eicosatetraenoic acid, are obtained from New England Nuclear (Boston, Mass.). Six percent Dextran-70 in 0.9% NaCl is obtained from Cutter Labs (Berkeley, Calif.).
Fresh blood from normal adult men who had not received any drugs for at least the previous five days is obtained by the Community Research Clinic (WL/PD) using venipuncture and collected into heparinized vacuotainer tubes. To every 100 ml of pooled blood is added 25 ml of dextran solution (6% dextran -70 in 0.9% sodium chloride containing 3% dextrose) and this is mixed gently in a plastic cylinder. The mixture is left to stand at room temperature for at least 90 minutes. The upper layer which is rich in leukocytes and platelets is then carefully decanted into 50 ml plastic tubes and centrifuged at about 100×g for eight minutes in an IEC centrifuge and rotor number 269 (about 600 rpm). The supernatant fluid is discarded and the pellet is resuspended in 10 ml of 0.87% ammonium chloride for exactly two minutes. This procedure is to lyse completely contaminating red blood cells. Leukocytes are then separated by centrifugation for ten minutes. The pellet is washed three times by suspension in 20 ml PBS (sodium chloride, 7.1 g; Na2 HPO4, 1.15 g; KH2 PO4, 0.2 g, and KCl, 0.2 g/L) and centrifuged as before. The final pellet is suspended in PBS containing 0.87 mM CaCl2. Viability of the cells is then checked using trypan blue exclusion method and is found to be over 90%.
Leukocyte cells in suspension (0.98 ml) are incubated with or without test compounds for five minutes at 37° C. in a shaking water bath. At this time a 17 μl mixture is prepared per 1 ml of cell suspension: 100 mM arachidonic acid, 1 μl, 0.05 μCi ^14 C-arachidonic acid in 5 .rho.l; 1 mM calcium ionophore A23187, 10 μl (1). This mixture is added and the incubation continued for five minutes. The reaction is stopped by adding four volumes of absolute ethanol and the mixture is kept in ice for 30 minutes. The floculated precipitate is separated by centrifugation at about 37,000×g for 20 minutes (Beckman Instruments rotor number 40). The alcohol extract is taken to dryness under a stream of nitrogen and the residue is dissolved in 100-200 μl absolute ethanol. At the time any turbidity is removed by centrifugation. An aliquot (25-50 μl) is applied onto 20×20 cm silica gel TLC plate and developed using the following solvent system: diethyl ether, petroleum ether (2040° C.), acetic acid (50:50: 1 v/v). Zones of 1 cm apart are scraped from the TLC plate and transferred to mini-vials. Methanol (0.5 ml) is added to dissolve the radioactivity adsorbed to the silica gel and scintillation fluid (H.P., Beckman), 5 ml is then added and vials are counted in a liquid scintillation counter. A sample of ^3 H-5-HETE is applied and used for the identification of the formed 5-HETE.
Total radioactivity in the test as well as the control samples are normalized and the amount of 5-HETE present is calculated accordingly.
IC50 values are defined as the concentrations of test agents which caused a 50% inhibition of the formation of 5-HETE as compared to control and are determined by inspection of the concentration-response curves.
The formation of 5-HETE in human leukocytes is considered a measure of 5-lipoxygenase activity. The protocol is described in the following.
Fresh heparinized or EDTA treated human blood is mixed with 6% dextran-3% dextrose in isotonic saline in the ratio 0.25 ml dextran solution per 1.0 ml blood. […]

COc1ccc(CCc2ccc(NC(=O)C(=O)C3=C(O)c4ccccc4S(=O)(=O)C3)cc2)cc1OC [Example 3, N-[4-[2-(3,4-Dimethoxyphenyl)ethyl)phenyl]-4-hydroxy-α-oxo-2H-1-benzothiopyran-3-acetamide, 1,1-dioxide]
LDAH, % Inhibition ([1]; 1.00 E -5 M): 0.0% | LDAH, % Inhibition ([1]; 2.50 E -5 M): 0.0%

O=C(Nc1ccc(Cc2ccc(O)c(O)c2)cc1)C1CS(=O)(=O)c2ccccc2C1=O (centres unmarked) [Example 14, N-[4-[(3,4-Dihydroxyphenyl)methyl]phenyl]-3,4-dihydro-4-oxo-2H-1-benzothiopyran-3-carboxamide, 1,1-dioxide]
LDAH, % Inhibition ([1]; 2.50 E -5 M): 0.0%

O=C(Nc1ccc(CCCc2ccc(O)c(O)c2)cc1)C1CS(=O)(=O)c2ccccc2C1=O (centres unmarked) [Example 22]
IC50 ([1]; conjugated diene at 234 nm, pH 9.0, 24 °C, read-out: LDAH, concentration for 50% inhibition (IC)): 13 µM

O=C(Nc1ccc(CCCCc2ccc(O)c(O)c2)cc1)C1CS(=O)(=O)c2ccccc2C1=O (centres unmarked) [Example 23, N-[4-[4-(3,4-Dihydroxyphenyl)butyl]phenyl]-3,4-dihydro-4-oxo-2H-1-benzothiopyran-3-carboxamide, 1,1-dioxide]
LDAH, % Inhibition ([1]; 2.50 E -5 M): 0.0%

COc1ccccc1CCc1ccc(NC(=O)C2=C(O)c3ccccc3S(=O)(=O)C2)cc1 [Example 37]
LDAH, % Inhibition ([1]; 8.00 E -5 M): 0.0%

Cc1ccccc1CCc1ccc(NC(=O)C2=C(O)c3ccccc3S(=O)(=O)C2)cc1 [Example 43]
LDAH, % Inhibition ([1]; 8.00 E -5 M): 0.0%

Cc1ccc(CCc2ccc(NC(=O)C3CS(=O)(=O)c4ccccc4C3=O)cc2)cc1 (centres unmarked) [Example 45]
LDAH, % Inhibition ([1]; 8.00 E -5 M): 0.0%

CCOC(=O)c1ccc(CCc2ccc(NC(=O)C3CS(=O)(=O)c4ccccc4C3=O)cc2)cc1 (centres unmarked) [Example 47, 4-[2-[4-[[(3,4-Dihydro-4-oxo-2H-1-benzothiopyran-3-yl)carbonyl]amino]phenyl]ethyl]benzoic acid, ethyl ester, 1,1-dioxide]
LDAH, % Inhibition ([1]; 8.00 E -5 M): 0.0%

CCCCOc1ccc(CCc2ccc(NC(=O)C3CS(=O)(=O)c4ccccc4C3=O)cc2)cc1 (centres unmarked) [Example 48]
LDAH, % Inhibition ([1]; 2.50 E -5 M): 0.0%

COc1ccc(CCc2ccc(NC(=O)C3CS(=O)(=O)c4ccccc4C3=O)cc2)cc1NC(C)=O (centres unmarked) [Example 50, N-[4-[2-(3-Acetylamino-4-methoxy)ethyl]phenyl]-3,4-dihydro-4-oxo-2H-1-benzothiopyran-3-carboxamide, 1,1-dioxide]
LDAH, % Inhibition ([1]; 8.00 E -5 M): 0.0%

COc1ccc(CCc2ccc(NC(=O)C3=C(O)c4ccccc4S(=O)(=O)N3C)cc2)cc1OC [Example 83, N-[4-[2-(3,4-Dimethoxyphenyl)ethyl)phenyl]-4-hydroxy-2-methyl-2H-1,2-benzothiazine-3-carboxamide, 1,1-dioxide]
5LOA, % Inhibition [2]: +1.6% | 5LOA, % Inhibition ([2]; 2.00 E 0 M): 9.2%

O=C(Nc1ccc(CCc2ccc(Cl)c(Cl)c2)cc1)C(=O)c1oc2cc3ccccc3cc2c1O [Example 113, Naphtho[2,3-b]furan-2-acetamide, N-[4-[2-(3,4-dichlorophenyl)ethyl]phenyl]-3-hydroxy-α-oxo]
5LOA, % Inhibition ([2]; 1.00 E -5 M): 15.3% | 5LOA, % Inhibition ([2]; 2.00 E -5 M): 33.7% | 5LOA, % Inhibition ([2]; 5.00 E -6 M): 6.3%

O=C(Nc1ccc(CCc2ccc(Cl)c(Cl)c2)cc1)c1sc2ccccc2c1O [Example 144]
5LOA, % Inhibition ([2]; 2.00 E -5 M): 42.5% | 5LOA, % Inhibition ([2]; 5.00 E -6 M): 36.0%

O=C(Nc1ccc(CCc2cc(C(F)(F)F)cc(C(F)(F)F)c2)cc1)c1sc2ccccc2c1O [Example 148, Benzo[b]thiophene-2-carboxamide, N-[4-[2-[3,5-bis-(trifluoromethyl)phenyl]ethyl]phenyl]-3-hydroxy]
5LOA, % Inhibition ([2]; 2.00 E -5 M): 19.0% | 5LOA, % Inhibition ([2]; 5.00 E -6 M): +7.3%

CCCCCCCCCCc1ccc(NC(=O)C(=O)C2=C(O)c3ccccc3OC2)cc1 [Example 151, N-(4-Decylphenyl)-4-hydroxy-α-oxo-2H-1-benzopyran-3-acetamide]
5LOA, % Inhibition ([2]; 1.00 E -5 M): 13.9% | 5LOA, % Inhibition ([2]; 4.00 E -5 M): 18.0%

COc1ccc(CCc2ccc(NC(=O)C(=O)C3=C(O)c4ccccc4OC3)cc2)cc1OC [Example 152]
5LOA, % Inhibition ([2]; 1.00 E -5 M): 23.0% | 5LOA, % Inhibition ([2]; 2.00 E -5 M): 38.1% and 33.9% | 5LOA, % Inhibition ([2]; 4.00 E -5 M): 76.3% | 5LOA, % Inhibition ([2]; 8.00 E -5 M): 79.2%

O=C(Nc1ccc(CCc2ccc(Cl)c(Cl)c2)cc1)C(=O)C1=C(O)c2ccccc2OC1 [Example 155, 2H-1-Benzopyran-3-acetamide, N-[4-[2-(3,4-dichlorophenyl)ethyl]phenyl]-4-hydroxy-α-oxo]
5LOA, % Inhibition ([2]; 2.00 E -5 M): 10.1% | 5LOA, % Inhibition ([2]; 4.00 E -5 M): 2.3% | 5LOA, % Inhibition ([2]; 5.00 E -6 M): +7.6%

Source: patent US4921871A, “Enolamides, pharmaceutical compositions and methods of use thereof for treating inflammation” (Warner-Lambert Company, priority 1987, dated 1990)
